# Source: patent US20260297060A1, “COMPOUNDS FOR THE DEGRADATION OF MUTANT BRAF” (C4 THERAPEUTICS, INC., priority 2023, published 2026)
# Read-outs that look alike come from different tables or passages of the source.
# Experiment: Pharmacokinetics in female BALB/c nude mice bearing A375 xenografts, 1 day dosing (PK and PD study): plasma, tumor and brain concentrations, AUC
# Format: in vivo
# Text: The concentrations of Dabrafenib, Compound 26 and Compound 141 in the treatment of female BALB/c nude mice bearing A375 xenografts are shown in Table 62-Table 72 and FIG. 52-FIG. 73.
# [1] = 0.75 mg/kg p.o. BID × 1 day, post 2nd dose, 48 h, BQL: below the lower limit of quantitation
# [2] = 1 mg/kg p.o. TID × 1 day, post 3rd dose, 48 h, BQL: below the lower limit of quantitation
# [3] = Compound 141, 1.5 mg/kg p.o. BID × 1 day, post 2nd dose, 36 h, BQL: below the lower limit of quantitation
# [4] = Compound 141, 1.5 mg/kg p.o. BID × 1 day, post 2nd dose, 48 h, BQL: below the lower limit of quantitation
# [5] = mouse, brain, po, 0.75 mg/kg, 0.75 mg/kg p.o. BID × 1 day, post 2nd dose, read-out: Mean Concentration in Brain ± SEM
# [6] = mouse, brain, po, 1 mg/kg, 1 mg/kg p.o. TID × 1 day, post 3rd dose, read-out: Mean Concentration in Brain ± SEM
# [7] = mouse, brain, po, 1.5 mg/kg, Compound 141, 1.5 mg/kg p.o. BID × 1 day, post 2nd dose, read-out: Mean Concentration in Brain ± SEM
# [8] = mouse, brain, po, 3 mg/kg, 3 mg/kg p.o. QD × 1 day, read-out: Mean Concentration in Brain ± SEM
# [9] = mouse, brain, po, 5 mg/kg, 5 mg/kg p.o. BID × 1 day, post 2nd dose, read-out: Mean Concentration in Brain ± SEM
# [10] = mouse, plasma, po, 0.75 mg/kg, 0.75 mg/kg p.o. BID × 1 day, post 1st dose, read-out: Mean Concentration in Plasma ± SEM
# [11] = mouse, plasma, po, 0.75 mg/kg, 0.75 mg/kg p.o. BID × 1 day, post 2nd dose, read-out: Mean Concentration in Plasma ± SEM
# [12] = mouse, plasma, po, 1 mg/kg, 1 mg/kg p.o. TID × 1 day, post 1st dose, read-out: Mean Concentration in Plasma ± SEM
# [13] = mouse, plasma, po, 1 mg/kg, 1 mg/kg p.o. TID × 1 day, post 2nd dose, read-out: Mean Concentration in Plasma ± SEM
# [14] = mouse, plasma, po, 1 mg/kg, 1 mg/kg p.o. TID × 1 day, post 3rd dose, read-out: Mean Concentration in Plasma ± SEM
smiles,measurement,setting,value
"CCN(C)S(=O)(=O)Nc1ccc(F)c(Oc2ccc3ncn(C4CC5(CCN(C6CC7(C6)CN(c6cc8c(cc6F)c(N6CCC(=O)NC6=O)nn8C)C7)CC5)C4)c(=O)c3c2)c1C#N (stereo not shown) [Compound 141, 6-[2-cyano-3-[[ethyl(methyl)sulfamoyl]amino]-6-fluoro-phenoxy]-3-[7-[2-[3-(2,4-dioxohexahydropyrimidin-1-yl)-5-fluoro-1-methyl-indazol-6-yl]-2-azaspiro[3.3]heptan-6-yl]-7-azaspiro[3.5]nonan-2-yl]-4-oxo-quinazoline]",Mean Concentration in Brain ± SEM,"0.75 mg/kg p.o. BID × 1 day, post 2nd dose, 24 h, BQL: below the lower limit of quantitation",BQL^a
same,Mean Concentration in Brain ± SEM,[1],BQL
same,Mean Concentration in Tumor ± SEM,[1],BQL
same,Mean Concentration in Brain ± SEM,"1 mg/kg p.o. TID × 1 day, post 3rd dose, 24 h, BQL: below the lower limit of quantitation",BQL^a
same,Mean Concentration in Brain ± SEM,[2],BQL
same,Mean Concentration in Plasma ± SEM,[2],BQL
same,Mean Concentration in Plasma ± SEM,"3 mg/kg p.o. QD × 1 day, 48 h, BQL: below the lower limit of quantitation",BQL^a
same,Mean Concentration in Brain ± SEM,"5 mg/kg p.o. BID × 1 day, post 2nd dose, 24 h, BQL: below the lower limit of quantitation",BQL^a
same,Mean Concentration in Brain ± SEM,"Compound 141, 1.5 mg/kg p.o. BID × 1 day, post 2nd dose, 24 h, BQL: below the lower limit of quantitation",BQL^a
same,Mean Concentration in Brain ± SEM,[3],BQL
same,Mean Concentration in Plasma ± SEM,[3],BQL
same,Mean Concentration in Brain ± SEM,[4],BQL
same,Mean Concentration in Plasma ± SEM,[4],BQL
same,concentration at 1 h,[5],26.7 ± 2.39 ng/g
same,concentration at 4 h,[5],10.2 ± 1.3 ng/g
same,concentration at 10 h,[5],6.61 ± 2 ng/g
same,concentration at 1 h,[6],22 ± 3.26 ng/g
same,concentration at 4 h,[6],17.9 ± 3.94 ng/g
same,concentration at 10 h,[6],14.6 ± 3.36 ng/g
same,concentration at 0.25 h,[7],11.2 ± 1.24 ng/g
same,concentration at 0.5 h,[7],25.5 ± 2.96 ng/g
same,concentration at 1 h,[7],44.1 ± 5.96 ng/g
same,concentration at 2 h,[7],39.3 ± 0.318 ng/g
same,concentration at 4 h,[7],23.5 ± 4.95 ng/g
same,concentration at 10 h,[7],3.51 ± 1.17 ng/g
same,concentration at 1 h,[8],70.5 ± 4.29 ng/g
same,concentration at 4 h,[8],37.6 ± 9.11 ng/g
same,concentration at 10 h,[8],11 ± 1.97 ng/g
same,concentration at 24 h,"mouse, brain, po, 3 mg/kg, 3 mg/kg p.o. QD × 1 day, 24 h, read-out: Mean Concentration in Brain ± SEM",3.31 ng/g
same,concentration at 48 h,"mouse, brain, po, 3 mg/kg, 3 mg/kg p.o. QD × 1 day, 48 h, read-out: Mean Concentration in Brain ± SEM",1.79 ng/g
same,concentration at 1 h,[9],126 ± 6.12 ng/g
same,concentration at 4 h,[9],52.9 ± 12.8 ng/g
same,concentration at 10 h,[9],13.1 ± 2.79 ng/g
same,concentration at 48 h,"mouse, brain, po, 5 mg/kg, 5 mg/kg p.o. BID × 1 day, post 2nd dose, 48 h, read-out: Mean Concentration in Brain ± SEM",4 ng/g
same,concentration at 0.25 h,[10],340 ± 19 ng/mL
same,concentration at 0.5 h,[10],832 ± 61.1 ng/mL
same,concentration at 1 h,[10],1070 ± 94.7 ng/mL
same,concentration at 2 h,[10],972 ± 13.5 ng/mL
same,concentration at 4 h,[10],491 ± 20.2 ng/mL
same,concentration at 8 h,[10],66.3 ± 5.93 ng/mL
same,concentration at 12 h,"mouse, plasma, po, 0.75 mg/kg, 0.75 mg/kg p.o. BID × 1 day, post 1st dose, 12 h, read-out: Mean Concentration in Plasma ± SEM",26.5 ± 4.92 ng/mL
same,concentration at 0.25 h,[11],297 ± 13.2 ng/mL
same,concentration at 0.5 h,[11],502 ± 84.1 ng/mL
same,concentration at 1 h,[11],778 ± 59.4 ng/mL
same,concentration at 2 h,[11],818 ± 118 ng/mL
same,concentration at 4 h,[11],247 ± 24.5 ng/mL
same,concentration at 10 h,[11],111 ± 18.4 ng/mL
same,concentration at 24 h,"mouse, plasma, po, 0.75 mg/kg, 0.75 mg/kg p.o. BID × 1 day, post 2nd dose, 24 h, read-out: Mean Concentration in Plasma ± SEM",1.09 ± 0.203 ng/mL
same,concentration at 36 h,"mouse, plasma, po, 0.75 mg/kg, 0.75 mg/kg p.o. BID × 1 day, post 2nd dose, 36 h, read-out: Mean Concentration in Plasma ± SEM",0.764 ng/mL
same,concentration at 48 h,"mouse, plasma, po, 0.75 mg/kg, 0.75 mg/kg p.o. BID × 1 day, post 2nd dose, 48 h, read-out: Mean Concentration in Plasma ± SEM",4.96 ng/mL
same,concentration at 0.25 h,[12],438 ± 25.4 ng/mL
same,concentration at 0.5 h,[12],836 ± 10.8 ng/mL
same,concentration at 1 h,[12],1130 ± 180 ng/mL
same,concentration at 2 h,[12],1000 ± 55.2 ng/mL
same,concentration at 4 h,[12],699 ± 129 ng/mL
same,concentration at 8 h,[12],242 ± 30.4 ng/mL
same,concentration at 0.25 h,[13],334 ± 54.7 ng/mL
same,concentration at 2 h,[13],879 ± 74.6 ng/mL
same,concentration at 8 h,[13],218 ± 16.3 ng/mL
same,concentration at 0.25 h,[14],346 ± 65.5 ng/mL
same,concentration at 0.5 h,[14],694 ± 54.4 ng/mL
same,concentration at 1 h,[14],664 ± 72 ng/mL
same,concentration at 2 h,[14],1600 ± 124 ng/mL
same,concentration at 4 h,[14],563 ± 173 ng/mL
same,concentration at 10 h,[14],415 ± 74.4 ng/mL
same,concentration at 24 h,"mouse, plasma, po, 1 mg/kg, 1 mg/kg p.o. TID × 1 day, post 3rd dose, 24 h, read-out: Mean Concentration in Plasma ± SEM",10.5 ± 5.67 ng/mL
same,concentration at 36 h,"mouse, plasma, po, 1 mg/kg, 1 mg/kg p.o. TID × 1 day, post 3rd dose, 36 h, read-out: Mean Concentration in Plasma ± SEM",3.2 ± 0.392 ng/mL
